Assay results as given in publication PMC9578392, “Safety, Tolerability, and Pharmacokinetics of the Novel Antiviral Agent Ensitrelvir Fumaric Acid, a SARS-CoV-2 3CL Protease Inhibitor, in Healthy Adults” (Antimicrobial Agents and Chemotherapy, 2022).

Assay: Blood lipid profiling, single-dose part (Supplementary Table 3)
Format: in vivo, human

## Cn1cnc(Cn2c(=O)[nH]/c(=N\c3cc4cn(C)nc4cc3Cl)n(Cc3cc(F)c(F)cc3F)c2=O)n1 [Ensitrelvir, ensitrelvir fumaric acid]
Cohort A 20 mg single dose, Day 2, baseline mean 0.8825
  Triglyceride, Mean (SD): 1.0032 mmol/L
Cohort A 20 mg single dose, Day 2, baseline mean 4.1635
  Cholesterol, Mean (SD): 4.2842 mmol/L
Cohort A 20 mg single dose, Day 2, baseline mean 460.0
  HDL-C, Mean (SD): 458.3 (47.9) mg/L
Cohort A 20 mg single dose, Day 2, baseline mean 993.3
  LDL-C, Mean (SD): 1048.3 mg/L
Cohort A 20 mg single dose, Day 4, baseline mean 0.8825
  Triglyceride, Mean (SD): 1.3643 mmol/L
Cohort A 20 mg single dose, Day 4, baseline mean 4.1635
  Cholesterol, Mean (SD): 4.2668 mmol/L
Cohort A 20 mg single dose, Day 4, baseline mean 460.0
  HDL-C, Mean (SD): 446.7 (63.1) mg/L
Cohort A 20 mg single dose, Day 4, baseline mean 993.3
  LDL-C, Mean (SD): 1026.7 mg/L
Cohort A 20 mg single dose, Day 7/Early termination, baseline mean 0.8825
  Triglyceride, Mean (SD): 1.3852 mmol/L
Cohort A 20 mg single dose, Day 7/Early termination, baseline mean 4.1635
  Cholesterol, Mean (SD): 4.1290 mmol/L
Cohort A 20 mg single dose, Day 7/Early termination, baseline mean 460.0
  HDL-C, Mean (SD): 440.0 (66.9) mg/L
Cohort A 20 mg single dose, Day 7/Early termination, baseline mean 993.3
  LDL-C, Mean (SD): 966.7 mg/L
Cohort A 20 mg single dose, Follow up, baseline mean 0.8825
  Triglyceride, Mean (SD): 0.7037 mmol/L
Cohort A 20 mg single dose, Follow up, baseline mean 4.1635
  Cholesterol, Mean (SD): 3.9048 mmol/L
Cohort A 20 mg single dose, Follow up, baseline mean 460.0
  HDL-C, Mean (SD): 445.0 (70.1) mg/L
Cohort A 20 mg single dose, Follow up, baseline mean 993.3
  LDL-C, Mean (SD): 923.3 mg/L
Cohort B 70 mg single dose, Day 2, baseline mean 1.0330
  Triglyceride, Mean (SD): 1.1478 mmol/L
Cohort B 70 mg single dose, Day 2, baseline mean 4.0987
  Cholesterol, Mean (SD): 4.1463 mmol/L
Cohort B 70 mg single dose, Day 2, baseline mean 436.7
  HDL-C, Mean (SD): 413.3 (42.7) mg/L
Cohort B 70 mg single dose, Day 2, baseline mean 995.0
  LDL-C, Mean (SD): 1041.7 mg/L
Cohort B 70 mg single dose, Day 4, baseline mean 1.0330
  Triglyceride, Mean (SD): 1.4170 mmol/L
Cohort B 70 mg single dose, Day 4, baseline mean 4.0987
  Cholesterol, Mean (SD): 4.0515 mmol/L
Cohort B 70 mg single dose, Day 4, baseline mean 436.7
  HDL-C, Mean (SD): 411.7 (52.3) mg/L
Cohort B 70 mg single dose, Day 4, baseline mean 995.0
  LDL-C, Mean (SD): 946.7 mg/L
Cohort B 70 mg single dose, Day 7/Early termination, baseline mean 1.0330
  Triglyceride, Mean (SD): 1.4393 mmol/L
Cohort B 70 mg single dose, Day 7/Early termination, baseline mean 4.0987
  Cholesterol, Mean (SD): 3.8145 mmol/L
Cohort B 70 mg single dose, Day 7/Early termination, baseline mean 436.7
  HDL-C, Mean (SD): 396.7 (60.2) mg/L
Cohort B 70 mg single dose, Day 7/Early termination, baseline mean 995.0
  LDL-C, Mean (SD): 881.7 mg/L
Cohort B 70 mg single dose, Follow up, baseline mean 1.0330
  Triglyceride, Mean (SD): 0.8882 mmol/L
Cohort B 70 mg single dose, Follow up, baseline mean 4.0987
  Cholesterol, Mean (SD): 3.7368 mmol/L
Cohort B 70 mg single dose, Follow up, baseline mean 436.7
  HDL-C, Mean (SD): 420.0 (55.1) mg/L
Cohort B 70 mg single dose, Follow up, baseline mean 995.0
  LDL-C, Mean (SD): 873.3 mg/L
Cohort C fasted state 250 mg single dose, Day 2 [Day 16], baseline mean 0.9596
  Triglyceride, Mean (SD): 1.3053 mmol/L
Cohort C fasted state 250 mg single dose, Day 2 [Day 16], baseline mean 4.1053
  Cholesterol, Mean (SD): 3.8918 mmol/L
Cohort C fasted state 250 mg single dose, Day 2 [Day 16], baseline mean 486.3
  HDL-C, Mean (SD): 376.3 (81.9) mg/L
Cohort C fasted state 250 mg single dose, Day 2 [Day 16], baseline mean 900.0
  LDL-C, Mean (SD): 916.3 mg/L
Cohort C fasted state 250 mg single dose, Day 4 [Day 18], baseline mean 0.9596
  Triglyceride, Mean (SD): 1.2235 mmol/L
Cohort C fasted state 250 mg single dose, Day 4 [Day 18], baseline mean 4.1053
  Cholesterol, Mean (SD): 3.9695 mmol/L
Cohort C fasted state 250 mg single dose, Day 4 [Day 18], baseline mean 486.3
  HDL-C, Mean (SD): 401.3 (66.4) mg/L
Cohort C fasted state 250 mg single dose, Day 4 [Day 18], baseline mean 900.0
  LDL-C, Mean (SD): 942.5 mg/L
Cohort C fasted state 250 mg single dose, Day 7 [Day 21]/Early termination, baseline mean 0.9596
  Triglyceride, Mean (SD): 1.0571 mmol/L
Cohort C fasted state 250 mg single dose, Day 7 [Day 21]/Early termination, baseline mean 4.1053
  Cholesterol, Mean (SD): 4.0019 mmol/L
Cohort C fasted state 250 mg single dose, Day 7 [Day 21]/Early termination, baseline mean 486.3
  HDL-C, Mean (SD): 438.8 (76.6) mg/L
Cohort C fasted state 250 mg single dose, Day 7 [Day 21]/Early termination, baseline mean 900.0
  LDL-C, Mean (SD): 923.8 mg/L
Cohort C fasted state 250 mg single dose, Follow up (n 4), baseline mean 0.9596
  Triglyceride, Mean (SD): 0.6295 mmol/L
Cohort C fasted state 250 mg single dose, Follow up (n 4), baseline mean 4.1053
  Cholesterol, Mean (SD): 3.9760 mmol/L
Cohort C fasted state 250 mg single dose, Follow up (n 4), baseline mean 486.3
  HDL-C, Mean (SD): 445.0 mg/L
Cohort C fasted state 250 mg single dose, Follow up (n 4), baseline mean 900.0
  LDL-C, Mean (SD): 977.5 mg/L
